{"source": "paper PMC6271933", "about": "“Evaluation of the Toxicity of 5-Aryl-2-Aminoimidazole-Based Biofilm Inhibitors against Eukaryotic Cell Lines, Bone Cells and the Nematode Caenorhabditis elegans” (Molecules, 2014)", "origin": "cited, not measured here", "key": {"several tumor cell lines": {"test_system": "several tumor cell lines", "parameters": "method as in PMID 1783523, PMID 15133248", "settings": "cited from earlier work"}, "[1]": {"test_system": "murine-grafted tumors, including P388 and L1210 leukemias, and solid tumors", "parameters": "method as in PMID 1783523, PMID 15133248", "settings": "cited from earlier work"}, "[2]": {"test_system": "calcium entry in PC12 cells", "parameters": "method as in PMID 15777959", "settings": "cited from earlier work"}, "[3]": {"test_system": "epidermal growth factor-stimulated DNA synthesis in squamous cell tumors", "settings": "squamous cell tumors; cited from earlier work"}, "A-431 cells": {"test_system": "A-431 cells", "parameters": "method as in PMID 9748366, PMID 12939464", "settings": "cited from earlier work"}, "mouse ES cells": {"test_system": "mouse ES cells", "parameters": "method as in PMID 2998604", "settings": "by inhibiting matrix metalloproteinase 2; cited from earlier work"}, "[4]": {"test_system": "GH4C1 rat pituitary and N2A mouse neuroblastoma cell lines", "parameters": "method as in PMID 18493660", "settings": "compared with parent molecule bromoageliferin; cited from earlier work"}}}
{"molecule": "NC[C@H](Cl)[C@@H](O)c1c[nH]c(N)n1", "note": "[2a, girolline]", "values": [{"measurement": "cytotoxicity in vitro against several tumor cell lines", "setting": "several tumor cell lines", "result": "significant cytotoxicity"}, {"measurement": "cytotoxicity in vivo against murine-grafted tumors", "setting": "[1]", "result": "significant cytotoxicity"}]}
{"molecule": "dibromoageliferin [2c]", "values": [{"measurement": "calcium entry in PC12 cells", "setting": "[2]", "result": "inhibit the calcium entry"}]}
{"molecule": "Nc1nc([C@@H]2c3[nH]c(N)nc3C[C@H](CNC(=O)c3cc(Br)c[nH]3)[C@H]2CNC(=O)c2cc(Br)c(Br)[nH]2)c[nH]1", "note": "[2b, bromoageliferin]", "values": [{"measurement": "calcium entry in PC12 cells", "setting": "[2]", "result": "inhibit the calcium entry"}]}
{"molecule": "COc1ccc(Cc2nc(NC3=NC(=O)N(C)C3=O)n(C)c2Cc2ccc(O)cc2)cc1", "note": "[2j, naamidine A]", "values": [{"measurement": "inhibition of epidermal growth factor-stimulated DNA synthesis", "setting": "[3]", "result": "potently inhibit"}, {"measurement": "cell cycle arrest of A-431 cells", "setting": "A-431 cells", "result": "arrest in the G1 phase"}]}
{"molecule": "Nc1nc2c(-c3cc(Br)c(Br)[nH]3)nccc2[nH]1", "note": "[2d, ageladine A]", "values": [{"measurement": "angiogenesis in a model using mouse ES cells", "setting": "mouse ES cells", "result": "reduce angiogenesis"}]}
{"molecule": "NC[C@@H]1Cc2[nH]c(N)nc2C[C@@H]1CN", "note": "[2o]", "values": [{"measurement": "cytotoxicity in GH4C1 rat pituitary and N2A mouse neuroblastoma cell lines", "setting": "[4]", "result": "lack the cytotoxicity"}]}
